Assay results: PubChem BioAssay AID1745844 (Carcinogenic Potency Database (CPDB), 2022)
Values joined by “and” are separate entries in the source; they are usually repeats but may differ in a detail not shown here. Identical values can stand only once. Active and inactive are the calls of the source. No rule for the calls is given here.

Test system: rodent lifetime carcinogenesis bioassay, tumor incidence TD50
Assay: carcinogenic potency in animals, long-term in vivo studies, CPDB compilation (AID 1745844)

## CC1CN(N=O)CC(C)O1 (configuration not stated)
hamster, strain Syrian Golden, females, by gavage, site: any site (literature study), lesion: several types, types named in the paper, dosed 59 weeks, study length 83 weeks
  TD50: 1.55 mg/kg/day
hamster, strain Syrian Golden, females, by gavage, site: forestomach, lesion: several types, types named in the paper, dosed 59 weeks, study length 83 weeks
  TD50: 9.45 mg/kg/day
hamster, strain Syrian Golden, females, by gavage, site: gall bladder, lesion: several types, types named in the paper, dosed 59 weeks, study length 83 weeks
  TD50: 12.9 mg/kg/day
hamster, strain Syrian Golden, females, by gavage, site: larynx, lesion: squamous-cell papilloma, dosed 59 weeks, study length 83 weeks
  carcinogen call: positive
hamster, strain Syrian Golden, females, by gavage, site: liver, lesion: several types, types named in the paper, dosed 59 weeks, study length 83 weeks
  TD50: 11 mg/kg/day
hamster, strain Syrian Golden, females, by gavage, site: lung, lesion: several types, types named in the paper, dosed 59 weeks, study length 83 weeks
  TD50: 34.6 mg/kg/day
hamster, strain Syrian Golden, females, by gavage, site: pancreas, lesion: several types, types named in the paper, dosed 59 weeks, study length 83 weeks
  TD50: 5.75 mg/kg/day
hamster, strain Syrian Golden, females, by gavage, site: pancreatic duct, lesion: adenoma, dosed 59 weeks, study length 83 weeks
  TD50: 6.99 mg/kg/day
hamster, strain Syrian Golden, females, by gavage, site: pancreatic duct, lesion: carcinoma, dosed 59 weeks, study length 83 weeks
  TD50: 32.1 mg/kg/day
hamster, strain Syrian Golden, females, by gavage, site: several sites, sites named in the paper, lesion: several types, types named in the paper, dosed 59 weeks, study length 83 weeks
  TD50: 9.17 mg/kg/day and 16.9 mg/kg/day
hamster, strain Syrian Golden, females, by gavage, site: trachea, lesion: papillary polyp, dosed 59 weeks, study length 83 weeks
  TD50: 6.4 mg/kg/day
hamster, strain Syrian Golden, males, by gavage, site: any site (literature study), lesion: several types, types named in the paper, dosed 66 weeks, study length 87 weeks
  TD50: 1.68 mg/kg/day
hamster, strain Syrian Golden, males, by gavage, site: forestomach, lesion: several types, types named in the paper, dosed 66 weeks, study length 87 weeks
  TD50: 2.91 mg/kg/day
hamster, strain Syrian Golden, males, by gavage, site: larynx, lesion: squamous-cell papilloma, dosed 66 weeks, study length 87 weeks
  TD50: 27.3 mg/kg/day
hamster, strain Syrian Golden, males, by gavage, site: liver, lesion: several types, types named in the paper, dosed 66 weeks, study length 87 weeks
  TD50: 10.1 mg/kg/day
hamster, strain Syrian Golden, males, by gavage, site: lung, lesion: several types, types named in the paper, dosed 66 weeks, study length 87 weeks
  TD50: 1.21 mg/kg/day
hamster, strain Syrian Golden, males, by gavage, site: pancreas, lesion: several types, types named in the paper, dosed 66 weeks, study length 87 weeks
  TD50: 2.78 mg/kg/day
hamster, strain Syrian Golden, males, by gavage, site: pancreatic duct, lesion: adenoma, dosed 66 weeks, study length 87 weeks
  TD50: 21.2 mg/kg/day
hamster, strain Syrian Golden, males, by gavage, site: pancreatic duct, lesion: carcinoma, dosed 66 weeks, study length 87 weeks
  TD50: 6.67 mg/kg/day
hamster, strain Syrian Golden, males, by gavage, site: trachea, lesion: papillary polyp, dosed 66 weeks, study length 87 weeks
  TD50: 10.5 mg/kg/day

## O=[N+]([O-])c1cc(N(CCO)CCO)ccc1NCCO
mouse, strain B6C3F1, females, in feed, site: any site (literature study), lesion: several types, types named in the paper, dosed 104 weeks, study length 105 weeks
  TD50: 42000 mg/kg/day (inactive)
mouse, strain B6C3F1, females, in feed, site: liver, lesion: hepatocellular adenoma + hepatocellular carcinoma + neoplastic nodule, dosed 104 weeks, study length 105 weeks
  TD50: 19000 mg/kg/day
mouse, strain B6C3F1, males, in feed, site: all sites, lesion: malignant lymphoma, histiocytic type + malignant lymphoma, mixed type + malignant lymphoma, lymphocytic type, dosed 104 weeks, study length 105 weeks
  TD50: 4040 mg/kg/day
mouse, strain B6C3F1, males, in feed, site: all sites, lesion: malignant lymphoma, lymphocytic type, dosed 104 weeks, study length 105 weeks
  TD50: 5450 mg/kg/day
mouse, strain B6C3F1, males, in feed, site: any site (literature study), lesion: several types, types named in the paper, dosed 104 weeks, study length 105 weeks
  TD50: 5020 mg/kg/day
mouse, strain B6C3F1, males, in feed, site: liver, lesion: hepatocellular adenoma + hepatocellular carcinoma + neoplastic nodule, dosed 104 weeks, study length 105 weeks
  TD50: 6550 mg/kg/day
mouse, strain B6C3F1, males, in feed, site: skin + subcutaneous tissue, lesion: fibrosarcoma + fibroma, dosed 104 weeks, study length 105 weeks
  TD50: 970 mg/kg/day (inactive)
rat, strain Fischer 344, females, in feed, site: any site (literature study), lesion: several types, types named in the paper, dosed 103 weeks, study length 104 weeks
  TD50: 3.13e+06 mg/kg/day
rat, strain Fischer 344, females, in feed, site: liver, lesion: hepatocellular adenoma + hepatocellular carcinoma + neoplastic nodule, dosed 103 weeks, study length 104 weeks
  TD50: 8150 mg/kg/day
rat, strain Fischer 344, females, in feed, site: liver, lesion: hepatocellular carcinoma + neoplastic nodule, dosed 103 weeks, study length 104 weeks
  TD50: 8150 mg/kg/day (inactive)
rat, strain Fischer 344, males, in feed, site: liver, lesion: hepatocellular adenoma + hepatocellular carcinoma + neoplastic nodule, dosed 103 weeks, study length 104 weeks
  TD50: 20300 mg/kg/day
rat, strain Fischer 344, males, in feed, site: thyroid gland, lesion: c-cell carcinoma, dosed 103 weeks, study length 104 weeks
  TD50: 1990 mg/kg/day (inactive)

## C=CCOC(=O)CC(C)C
mouse, strain B6C3F1, females, by gavage, site: all sites, lesion: malignant lymphoma, histiocytic type + malignant lymphoma, mixed type + malignant lymphoma, lymphocytic type, dosed 103 weeks, study length 106 weeks
  TD50: 62.8 mg/kg/day
mouse, strain B6C3F1, females, by gavage, site: all sites, lesion: malignant lymphoma, histiocytic type, dosed 103 weeks, study length 106 weeks
  TD50: 238 mg/kg/day
mouse, strain B6C3F1, females, by gavage, site: all sites, lesion: malignant lymphoma, mixed type, dosed 103 weeks, study length 106 weeks
  TD50: 102 mg/kg/day
mouse, strain B6C3F1, females, by gavage, site: any site (literature study), lesion: several types, types named in the paper, dosed 103 weeks, study length 106 weeks
  TD50: 65.5 mg/kg/day
mouse, strain B6C3F1, females, by gavage, site: lung, lesion: alveolar/bronchiolar adenoma + alveolar/bronchiolar carcinoma, dosed 103 weeks, study length 106 weeks
  TD50: 4450 mg/kg/day
mouse, strain B6C3F1, males, by gavage, site: any site (literature study), lesion: several types, types named in the paper, dosed 103 weeks, study length 106 weeks
  TD50: 206 mg/kg/day
mouse, strain B6C3F1, males, by gavage, site: gastric mucosa, lesion: squamous-cell papilloma, dosed 103 weeks, study length 106 weeks
  TD50: 295 mg/kg/day (inactive)
rat, strain Fischer 344, females, by gavage, site: any site (literature study), lesion: several types, types named in the paper, dosed 103 weeks, study length 106 weeks
  TD50: 43.5 mg/kg/day (inactive)
rat, strain Fischer 344, males, by gavage, site: all sites, lesion: monocytic leukemia + malignant lymphoma, histiocytic type, dosed 103 weeks, study length 106 weeks
  TD50: 123 mg/kg/day
rat, strain Fischer 344, males, by gavage, site: all sites, lesion: monocytic leukemia, dosed 103 weeks, study length 106 weeks
  TD50: 149 mg/kg/day
rat, strain Fischer 344, males, by gavage, site: any site (literature study), lesion: several types, types named in the paper, dosed 103 weeks, study length 106 weeks
  TD50: 50.5 mg/kg/day
rat, strain Fischer 344, males, by gavage, site: liver, lesion: hepatocellular adenoma + hepatocellular carcinoma + neoplastic nodule, dosed 103 weeks, study length 106 weeks
  TD50: 264 mg/kg/day
rat, strain Fischer 344, males, by gavage, site: preputial gland, lesion: adenoma, NOS + carcinoma, NOS + squamous-cell carcinoma, dosed 103 weeks, study length 106 weeks
  TD50: 136 mg/kg/day

## CN(CCc1ccccc1)N=O
rat, strain Fischer 344, males, in drinking water, site: esophagus, lesion: several types, types named in the paper, dosed 32 weeks, study length 127 weeks
  TD50: 0.0401 mg/kg/day
rat, strain Fischer 344, males, in drinking water, site: esophagus, lesion: several types, types named in the paper, dosed 104 weeks, study length 127 weeks
  TD50: 0.0422 mg/kg/day
rat, strain Fischer 344, males, in drinking water, site: forestomach, lesion: basal-cell carcinoma, dosed 32 weeks, study length 127 weeks
  TD50: 2.57 mg/kg/day
rat, strain Fischer 344, males, in drinking water, site: forestomach, lesion: basal-cell carcinoma, dosed 104 weeks, study length 127 weeks
  TD50: 0.0422 mg/kg/day
rat, strain Fischer 344, males, in drinking water, site: forestomach, lesion: basal-cell papilloma, dosed 32 weeks, study length 127 weeks
  TD50: 2.21 mg/kg/day
rat, strain Fischer 344, males, in drinking water, site: liver, lesion: hyperplastic nodule, dosed 104 weeks, study length 127 weeks
  TD50: 0.184 mg/kg/day
rat, strain Fischer 344, males, in drinking water, site: tongue, lesion: basal-cell carcinoma, dosed 32 weeks, study length 127 weeks
  carcinogen call: positive
rat, strain Fischer 344, males, in drinking water, site: tongue, lesion: basal-cell carcinoma, dosed 104 weeks, study length 127 weeks
  TD50: 0.184 mg/kg/day
rat, strain Fischer 344, males, in drinking water, site: upper gastrointestinal tract, lesion: several types, types named in the paper, dosed 32 weeks, study length 127 weeks
  TD50: 0.00788 mg/kg/day
rat, strain Fischer 344, males, in drinking water, site: upper gastrointestinal tract, lesion: several types, types named in the paper, dosed 104 weeks, study length 127 weeks
  TD50: 0.0136 mg/kg/day

## FC(Cl)C(F)(F)F (configuration not stated)
rat, strain Charles River CD (Sprague-Dawley), females, inhaled, site: mammary gland, lesion: fibroadenoma, dosed 104 weeks, study length 104 weeks
  TD50: 56300 mg/kg/day (inactive)
rat, strain Charles River CD (Sprague-Dawley), females, inhaled, site: mammary gland, lesion: several types, types named in the paper, dosed 104 weeks, study length 104 weeks
  TD50: 54000 mg/kg/day (inactive)

## CN(C)Nc1nc(-c2ccc([N+](=O)[O-])o2)cs1
rat, strain Sprague-Dawley, females, in feed, site: all sites, lesion: lymphoblastic lymphoma, dosed 46 weeks, study length 66 weeks
  TD50: 16.3 mg/kg/day
rat, strain Sprague-Dawley, females, in feed, site: mammary gland, lesion: adenocarcinoma, dosed 46 weeks, study length 66 weeks
  TD50: 0.391 mg/kg/day
rat, strain Sprague-Dawley, females, in feed, site: mammary gland, lesion: several types, types named in the paper, dosed 46 weeks, study length 66 weeks
  carcinogen call: positive

## Nc1nnc(-c2ccc([N+](=O)[O-])o2)s1
rat, strain Sprague-Dawley, females, in feed, site: any site (literature study), lesion: several types, types named in the paper, dosed 45 weeks, study length 66 weeks
  TD50: 0.662 mg/kg/day
rat, strain Sprague-Dawley, females, in feed, site: forestomach, lesion: squamous-cell papilloma, dosed 45 weeks, study length 66 weeks
  TD50: 23.7 mg/kg/day
rat, strain Sprague-Dawley, females, in feed, site: kidney/pelvis, lesion: transitional-cell carcinoma, dosed 45 weeks, study length 66 weeks
  TD50: 73.4 mg/kg/day
rat, strain Sprague-Dawley, females, in feed, site: lung, lesion: alveolar-cell carcinoma, dosed 45 weeks, study length 66 weeks
  TD50: 73.4 mg/kg/day
rat, strain Sprague-Dawley, females, in feed, site: mammary gland, lesion: adenocarcinoma, dosed 45 weeks, study length 66 weeks
  TD50: 1.2 mg/kg/day
rat, strain Sprague-Dawley, females, in feed, site: mammary gland, lesion: several types, types named in the paper, dosed 45 weeks, study length 66 weeks
  TD50: 0.662 mg/kg/day

## CCCN(N=O)/C(N)=N/[N+](=O)[O-]
rat, strain Wistar, males, in drinking water, site: stomach, glandular, lesion: adenocarcinoma, dosed 52 weeks, study length 65 weeks
  TD50: 2.85 mg/kg/day
rat, strain Wistar, males, in drinking water, site: stomach, glandular, lesion: adenocarcinoma, dosed 52 weeks, study length 78 weeks
  TD50: 2.27 mg/kg/day
rat, strain Wistar, males, in drinking water, site: stomach, glandular, lesion: adenoma, dosed 34 weeks, study length 65 weeks
  TD50: 1.9 mg/kg/day
rat, strain Wistar, males, in drinking water, site: stomach, glandular, lesion: adenoma, dosed 52 weeks, study length 65 weeks
  TD50: 0.919 mg/kg/day
rat, strain Wistar, males, in drinking water, site: stomach, glandular, lesion: adenoma, dosed 52 weeks, study length 78 weeks
  TD50: 2.27 mg/kg/day

## c1ccc2[nH]ccc2c1
mouse, strain Swiss albino, females, in feed, site: urinary bladder, lesion: carcinoma, dosed 70 weeks, study length 70 weeks
  carcinogen call: negative (inactive)
